Test results as given in patent publication US20210300940A1 (Merck Patent GmbH, priority 2018, published 2021).

How the values were obtained:
TLR8 = target: T1, TLR8 (Homo sapiens, UniProt Q9NR97); assay: HEK/293 TLR8 Cell Assay; type: cell-based; conditions: HEK cells, R848 agonist 30 uM final concentration, Steady-Glo readout; read-out: TLR8 potency
T1 construct: expressed in transfected cells; host or cells: HEK/293 reporter cells (NF-kB luciferase)
T1 sequence (Q9NR97 27-1041): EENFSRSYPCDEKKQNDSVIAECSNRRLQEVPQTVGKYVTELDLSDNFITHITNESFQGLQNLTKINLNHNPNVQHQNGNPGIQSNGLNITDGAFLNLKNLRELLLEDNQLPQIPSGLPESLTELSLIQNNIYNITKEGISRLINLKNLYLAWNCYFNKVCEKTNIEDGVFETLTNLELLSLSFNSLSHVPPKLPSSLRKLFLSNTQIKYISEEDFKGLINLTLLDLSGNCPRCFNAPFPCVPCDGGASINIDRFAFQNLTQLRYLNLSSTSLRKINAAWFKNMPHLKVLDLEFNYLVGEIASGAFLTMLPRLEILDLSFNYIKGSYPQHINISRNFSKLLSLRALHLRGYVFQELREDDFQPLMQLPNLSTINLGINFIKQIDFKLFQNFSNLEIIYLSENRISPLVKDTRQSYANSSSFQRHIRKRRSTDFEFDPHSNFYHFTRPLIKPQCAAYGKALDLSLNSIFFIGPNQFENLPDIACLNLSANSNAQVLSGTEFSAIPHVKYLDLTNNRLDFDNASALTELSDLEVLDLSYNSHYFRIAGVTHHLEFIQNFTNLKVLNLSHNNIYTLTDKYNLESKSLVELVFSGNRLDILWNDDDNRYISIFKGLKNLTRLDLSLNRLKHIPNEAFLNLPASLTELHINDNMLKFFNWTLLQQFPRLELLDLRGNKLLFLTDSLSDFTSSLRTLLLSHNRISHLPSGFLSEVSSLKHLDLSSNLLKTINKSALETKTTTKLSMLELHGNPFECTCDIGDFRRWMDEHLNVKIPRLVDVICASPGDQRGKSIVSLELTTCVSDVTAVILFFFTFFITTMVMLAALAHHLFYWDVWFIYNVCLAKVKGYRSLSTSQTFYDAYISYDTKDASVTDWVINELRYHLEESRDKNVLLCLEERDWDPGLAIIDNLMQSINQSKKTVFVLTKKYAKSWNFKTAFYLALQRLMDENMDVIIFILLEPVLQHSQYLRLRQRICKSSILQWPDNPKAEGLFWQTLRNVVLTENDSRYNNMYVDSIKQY

TLR7 = target: T2, TLR7 (Homo sapiens, UniProt Q9NYK1); assay: HEK/293 TLR7 Cell Assay; type: cell-based; conditions: TLR7/NFKb HEK cells, R848 agonist 10 uM final concentration, Steady-Glo readout; read-out: TLR7 potency
T2 construct: expressed in transfected cells; host or cells: HEK/293 cells carrying TLR7 and an NF-kB luciferase reporter
T2 sequence (Q9NYK1 27-1049): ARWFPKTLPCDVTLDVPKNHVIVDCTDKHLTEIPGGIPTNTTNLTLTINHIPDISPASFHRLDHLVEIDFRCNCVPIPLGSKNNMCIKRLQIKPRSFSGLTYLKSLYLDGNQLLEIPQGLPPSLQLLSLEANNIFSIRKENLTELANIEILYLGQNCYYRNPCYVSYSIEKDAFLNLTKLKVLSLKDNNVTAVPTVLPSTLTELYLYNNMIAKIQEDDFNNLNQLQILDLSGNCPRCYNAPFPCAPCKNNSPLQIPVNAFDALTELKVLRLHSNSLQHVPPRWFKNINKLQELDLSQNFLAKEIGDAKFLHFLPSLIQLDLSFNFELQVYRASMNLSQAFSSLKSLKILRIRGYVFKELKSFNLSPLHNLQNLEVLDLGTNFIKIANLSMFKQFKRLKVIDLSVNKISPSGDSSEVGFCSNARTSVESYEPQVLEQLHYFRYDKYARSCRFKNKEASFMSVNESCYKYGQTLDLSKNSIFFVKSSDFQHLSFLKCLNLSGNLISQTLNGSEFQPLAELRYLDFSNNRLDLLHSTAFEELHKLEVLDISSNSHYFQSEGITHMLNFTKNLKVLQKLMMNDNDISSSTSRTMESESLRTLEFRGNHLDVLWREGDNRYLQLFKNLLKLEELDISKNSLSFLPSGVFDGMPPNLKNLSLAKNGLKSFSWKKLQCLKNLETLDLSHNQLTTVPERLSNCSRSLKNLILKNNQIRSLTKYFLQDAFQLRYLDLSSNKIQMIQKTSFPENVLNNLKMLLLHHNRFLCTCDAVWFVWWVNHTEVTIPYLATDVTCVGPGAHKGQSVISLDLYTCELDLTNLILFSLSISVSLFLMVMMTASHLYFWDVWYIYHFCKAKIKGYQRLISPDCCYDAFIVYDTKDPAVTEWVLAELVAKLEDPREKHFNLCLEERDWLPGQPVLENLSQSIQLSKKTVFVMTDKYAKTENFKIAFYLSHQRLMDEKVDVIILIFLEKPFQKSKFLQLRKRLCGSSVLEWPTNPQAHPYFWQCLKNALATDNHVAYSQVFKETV
In short: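 Compounds added to HEK cells expressing TLR7 with an NFκB reporter 30 min ahead of 10 uM R848 challenge; luciferase signal (Steady-Glo) measured after 5 h, cells having been seeded 24 h earlier at 5000 per well.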

Row | SMILES | IC50 (TLR8) | IC50 (TLR7)
1 | COCC(O)CNC(=O)[C@H]1CN(c2ccc(C#N)c3nccnc23)C[C@@H](C)O1 (stereo partly drawn) [Example 252, (2R,6R)-4-(8-Cyano-quinoxalin-5-yl)-6-methyl-morpholine-2-carboxylic acid (2-hydroxy-3-methoxy-propyl)-amide] | < 75 nM | 75 to 150 nM
2 | C[C@@H]1CN(c2ccc(C#N)c3nccnc23)C[C@H](C(=O)NCC2(F)CCN(C)CC2)O1 [Example 253, (2R,6R)-4-(8-Cyano-quinoxalin-5-yl)-6-methyl-morpholine-2-carboxylic acid (4-fluoro-1-methyl-piperidin-4-ylmethyl)-amide] | < 75 nM | < 75 nM
3 | C[C@@H]1CN(c2ccc(C#N)c3nccnc23)C[C@H](C(=O)NC2CN(CC(F)(F)F)C2)O1 [Example 254, (2R,6R)-4-(8-Cyano-quinoxalin-5-yl)-6-methyl-morpholine-2-carboxylic acid [1-(2,2,2-trifluoro-ethyl)-azetidin-3-yl]-amide] | > 150 nM | < 75 nM
4 | CNS(=O)(=O)CCNC(=O)[C@H]1CN(c2ccc(C#N)c3nccnc23)C[C@@H](C)O1 [Example 255, (2R,6R)-4-(8-cyanoquinoxalin-5-yl)-6-methyl-N-[2-(methylsulfamoyl)ethyl]morpholine-2-carboxamide] | < 75 nM | < 75 nM
5 | C[C@@H]1CN(c2ccc(C#N)c3nccnc23)C[C@H](C(=O)NCCS(C)(=O)=O)O1 [Example 256, (2R,6R)-4-(8-cyanoquinoxalin-5-yl)-N-(2-methanesulfonylethyl)-6-methyl morpholine-2-carboxamide] | < 75 nM | < 75 nM
6 | C[C@@H]1CN(c2ccc(C#N)c3nccnc23)C[C@H](C(=O)NCC2CCS(=O)(=O)C2)O1 (stereo partly drawn) [Example 257, (2R,6R)-4-(8-cyanoquinoxalin-5-yl)-N-[(1,1-dioxo-1λ^6-thiolan-3-yl)methyl]-6-methylmorpholine-2-carboxamide] | < 75 nM | < 75 nM
7 | C[C@@H]1CN(c2ccc(C#N)c3nccnc23)C[C@H](C(=O)NCC2CS(=O)(=O)C2)O1 [Example 258, (2R,6R)-4-(8-cyanoquinoxalin-5-yl)-N-[(1,1-dioxo-1λ^6-thietan-3-yl)methyl]-6-methylmorpholine-2-carboxamide] | > 150 nM | < 75 nM
8 | C[C@@H]1CN(c2ccc(C#N)c3nccnc23)C[C@H](C(=O)NCCC2CS(=O)(=O)C2)O1 [Example 259, (2R,6R)-4-(8-cyanoquinoxalin-5-yl)-N-[2-(1,1-dioxo-1λ^6-thietan-3-yl)ethyl]-6-methylmorpholine-2-carboxamide] | > 150 nM | < 75 nM
9 | C[C@@H]1CN(c2ccc(C#N)c3nccnc23)C[C@H](C(=O)NCCCS(C)(=O)=O)O1 [Example 260, (2R,6R)-4-(8-cyanoquinoxalin-5-yl)-N-(3-methanesulfonylpropyl)-6-methylmorpholine-2-carboxamide] | > 150 nM | 75 to 150 nM
10 | C[C@@H]1CN(c2ccc(C#N)c3nccnc23)C[C@H](C(=O)NCCN2CCOCC2)O1 [Example 265, (2R,6R)-4-(8-cyanoquinoxalin-5-yl)-6-methyl-N-[2-(morpholin-4-yl)ethyl]morpholine-2-carboxamide] | < 75 nM | < 75 nM
11 | CCN(C)CCNC(=O)[C@H]1CN(c2ccc(C#N)c3ncncc23)C[C@@H](C)O1 [Example 266, (2R,6R)-4-(8-Cyano-quinazolin-5-yl)-6-methyl-morpholine-2-carboxylic acid [2-(ethyl-methyl-amino)-ethyl]-amide] | > 150 nM | 75 to 150 nM
12 | C[C@@H]1CN(c2ccc(C#N)c3ncncc23)C[C@H](C(=O)NC[C@H]2CN(C)CCO2)O1 [Example 267, (2R,6R)-4-(8-Cyano-quinazolin-5-yl)-6-methyl-morpholine-2-carboxylic acid ((S)-4-methyl-morpholin-2-ylmethyl)-amide] | < 75 nM | < 75 nM
13 | C[C@@H]1CN(c2ccc(C#N)c3ncncc23)C[C@H](C(=O)NC2CCC(N3CCOCC3)CC2)O1 (stereo partly drawn) [Example 268, (2R,6R)-4-(8-Cyano-quinazolin-5-yl)-6-methyl-morpholine-2-carboxylic acid (4-morpholin-4-yl-cyclohexyl)-amide] | < 75 nM | < 75 nM

Other lines, results leading:

Row | IC50 (TLR8) | IC50 (TLR7) | SMILES
14 | > 150 nM | > 150 nM | C[C@@H]1CN(c2cnc(C#N)c3ncccc23)C[C@H](C(=O)NCC(O)C(F)(F)F)O1 (stereo partly drawn) [Example 269, (2R,6R)-4-(8-Cyano-[1,7]naphthyridin-5-yl)-6-methyl-morpholine-2-carboxylic acid (3,3,3-trifluoro-2-hydroxy-propyl)-amide]
15 | < 75 nM | < 75 nM | CCN(C)CCNC(=O)[C@H]1CN(c2cnc(C#N)c3ncccc23)C[C@@H](C)O1 [Example 270, (2R,6R)-4-(8-Cyano-[1,7]naphthyridin-5-yl)-6-methyl-morpholine-2-carboxylic acid [2-(ethyl-methyl-amino)-ethyl]-amide]
16 | < 75 nM | < 75 nM | C[C@@H]1CN(c2cnc(C#N)c3ncccc23)C[C@H](C(=O)NCC2CN(C)CCO2)O1 (stereo partly drawn) [Example 271, (2R,6R)-4-(8-Cyano-[1,7]naphthyridin-5-yl)-6-methyl-morpholine-2-carboxylic acid (4-methyl-morpholin-2-ylmethyl)-amide]
17 | < 75 nM | < 75 nM | C[C@@H]1CN(c2cnc(C#N)c3ncccc23)C[C@H](C(=O)NC2CCN(CC3CC3)C2)O1 (stereo partly drawn) [Example 272, (2R,6R)-4-(8-Cyano-[1,7]naphthyridin-5-yl)-6-methyl-morpholine-2-carboxylic acid (1-cyclopropylmethyl-pyrrolidin-3-yl)-amide]
18 | < 75 nM | < 75 nM | C[C@@H]1CN(c2cnc(C#N)c3ncccc23)C[C@H](C(=O)NCC2CCCN2C)O1 (stereo partly drawn) [Example 273, (2R,6R)-4-(8-Cyano-[1,7]naphthyridin-5-yl)-6-methyl-morpholine-2-carboxylic acid (1-methyl-pyrrolidin-2-ylmethyl)-amide]
19 | < 75 nM | < 75 nM | C[C@@H]1CN(c2cnc(C#N)c3ncccc23)C[C@H](C(=O)NC[C@H]2CN(C)CCO2)O1 [Example 274, (2R,6R)-4-(8-Cyano-[1,7]naphthyridin-5-yl)-6-methyl-morpholine-2-carboxylic acid ((S)-4-methyl-morpholin-2-ylmethyl)-amide]
20 | < 75 nM | < 75 nM | C[C@@H]1CN(c2cnc(C#N)c3ncccc23)C[C@H](C(=O)NC[C@@H]2CN(C)CCO2)O1 [Example 275, (2R,6R)-4-(8-Cyano-[1,7]naphthyridin-5-yl)-6-methyl-morpholine-2-carboxylic acid ((R)-4-methyl-morpholin-2-ylmethyl)-amide]
